In the assay the test system is peritoneal M.phi. from normal C3H/HeN mice. Nature of the assay: macrophage (M.phi.) phagocytic stimulation assay (ingestion of killed yeast cells, Zymosan). In kind it is cell-based. The source says: The compounds of formula I, including the pharmaceutically acceptable esters, amides and salts, are active as immunostimulating agents. […] This assay, carried out in comparison with tuftsin, has been performed according to a modification of the method described by Bar-Shavit et al. in J.Cell.Physiol., 100, p.55 (1979). More particularly, peritoneal M.phi. from normal C3H/HeN mice are harvested by washing of the peritoneal cavity and purified by adherence as described in J.Immunol., 132, p.1987 (1984). Monolayers of 1×10^6 adherent peritoneal cells (95-98% of the monocyte-M.phi. series as judged by morphology and latex phagocytosis) are cultured for 20 h at 37° C. in RPMI-1640 medium supplemented with 50 μg/ml gentamycin, 25 mM HEPES buffer, 2 mM L-glutamine and 10% heat-inactivated fetal bovine serum (FBS). At the end of the incubation, M.phi. are washed and then exposed for 15 minutes at 37° C. to 1.3 ml/plate of culture medium either alone (blank) or containing tuftsin or a compound of the invention at different concentrations. A 1.5×10^8 cells/ml suspension of killed yeast cells (Zymosan)(0.2 ml) is then added to the plates. M.phi. are incubated for 60 minutes at 37° C., then washed, fixed (2% glutaraldehyde in PBS, 30 minutes, 4° C.) and stained. The percentage of phagocyting M.phi. and the number of ingested Zymosan cells is measured with an optical microscope equipped with a 100x immersion objective. In a representative experiment aimed at comparing the activity of tuftsin with that of the corresponding retro-inverso analogue of example 1, it has been observed that all M.phi. were capable of phagocyting zymosan in the above described conditions.
As the poor therapeutical applicability of tuftsin is mainly due to its low stability and to the consequent rapid loss of biological activity, the phagocytosis assay has been repeated comparing the activity of tuftsin and its retro-inverso analogue of example 1, stored for 14 days in solution at 4° C. […] At the concentration of 10^-6 M in fact the compound of Example 1 gave a number of ingested zymosan cells per 100 phagocyting macrophages of 1.8×10^3 (with an immunopotentiating effect corresponding therefore to 136% of the control).

Setting [1] is: peptide stored for 14 days in solution at 4° C., concentration 10^-6 M.

For the substance “{(2RS)-2-[N-(1-amino-2-hydroxy-propyl)carbamyl]-6-amino}-hexanoyl-L-prolyl- L-arginine [Example 1]”, the “number of ingested yeast cells (in words)” value (fresh peptide, linearly dependent on peptide concentration) is “significantly increased”. Also, the “ingested zymosan cells, % of the control” value (peptide concentration 3×10^-7 M) is on record as 170 % of the control. Besides, the “ingested zymosan cells per 100 macrophages” value (peptide concentration 3×10^-7 M, 15 min exposure, then 60 min with Zymosan at 37° C.) was 2.2×10^3 ingested zymosan cells per 100 macrophages. Also, where the note is “peptide concentration 10^-6 M”, the “ingested zymosan cells per 100 phagocyting macrophages” value was 2.44×10^3 ingested zymosan cells per 100 phagocyting macrophages and the “ingested zymosan cells, % of the control” value was 188 % of the control. Besides, where the note is “peptide stored for 14 days in solution at 4° C.”, the “phagocytosis stimulation (in words)” value is “still significant even if less than above”. Also, under setting [1], the “immunopotentiating effect, % of the control” value was 136 % of the control and the “ingested zymosan cells per 100 phagocyting macrophages” value is 1.8×10^3 ingested zymosan cells per 100 phagocyting macrophages.
